Laboratory results reported in US20150231109A1, “COMBINATIONS (CATECHINS AND METHOTREXATE) FOR USE IN THE TREATMENT OF MELANOMAS” (UNIVERSIDAD DE MURCIA, priority 2012, published 2015).

Tests used:
Assay type in all cases: cell-based, human
SK-MEL-28 cells [1] = assay: Apoptosis assay (cytoplasmic histone-associated DNA fragmentation ELISA), SK-MEL-28; conditions: SK-MEL-28, MTX alone
Protocol: (§1) FIGS. 2A-N. MTX and TMECG combination therapy induces apoptosis via dTTP depletion and DNA-damage. A, Intracellular accumulation of TMECG-QM in SK-MEL-28 treated with TMECG or MTX/TMECG for 24 h. B, Proliferation assays performed of control or MTX/TMECG-treated (10 μM/1 μM) SK-MEL-28 cells. C, Quantification of effects of MTX/TMECG treatment on SK-MEL-28 cells (*P<0.05 with respect to TMECG-treated cells). For time course assay MTX (1 μM) and TMECG (10 μM) were used. D, dNTP quantification in melanoma cells subjected to indicated treatments (*P<0.05). […] K, quantification of γH2AX foci in SK-MEL-28 cells treated with MTX (1 μM) and/or TMECG (10 μM), or X-rays. […] N, Cell cycle profile determined by flow cytometry of SK-MEL-28 cells treated with a sublethal dose of MTX/TMECG. […]
The induction of apoptosis was assessed by performing cytoplasmic histone-associated DNA fragmentation using a kit from Roche Diagnostics (Barcelona, Spain). […] The amount of nucleosomes is photometrically quantified at 405 nm by the peroxidase activity retained in the immunocomplexes. Apoptosis was defined as the specific enrichment of mono- and oligonucleosomes in the cytoplasm and was calculated by dividing the absorbance of treated samples by the absorbance of untreated samples after correcting for the number of cells. […]

TYR = TYR mRNA and protein expression in melanoma cell lines; conditions: MTX 1 μM; SK-MEL-28 and multiple melanoma cell lines
Protocol: H, Semiquantitative RT PCR of TYR, TYRP1, Pmel17, MART1, and Rab27a mRNA. SK-MEL-28 and siMITF-SK-MEL-28 cells were treated for 5 h with 1 μM MTX. mRNA levels are presented relative to β-actin mRNA and compared to their expression levels in untreated cells (1-fold).
mRNA extraction, cDNA synthesis, and conventional and qRT-PCR were performed under standard conditions. Primers were designed using Primer Express version 2.0 software (Applied Biosystems, Foster City, Calif.) and synthesized by Invitrogen (Barcelona, Spain).
Whole cell lysates were collected by adding SDS sample buffer. After extensive sonication, samples were boiled for 10 min and subjected to SDS-PAGE. Proteins were then transferred to nitrocellulose membranes and analyzed by immunoblotting (ECL Plus, GE Healthcare, Barcelona, Spain).

[2] = tested on: melanoma cells (SK-MEL-28); assay: dNTP pool extraction and analysis
Protocol: as §1, with “(*P<0.05). E, SK-MEL-28 cells treated with MTX/TMECG for the indicated times were examined by immunofluorescence for γH2AX foci (red) and DAPI (blue) (left panels), or by WB (right panels). β-actin served as a protein loading control. F, apoptosis determination at different MTX/TMECG combinations in SK-MEL-28 cells after 4 days of treatment. Data were obtained in triplicate in two independent experiments. Differences in apoptosis in MTX/TMECG treated cells were significant with respect to individual treatments for each drug concentration (p<0.05).” for “(*P<0.05).”

SK-MEL-28 cells [3] = assay: Proliferation assay, SK-MEL-28; conditions: SK-MEL-28, MTX alone
Protocol: B, Proliferation assays performed of control or MTX/TMECG-treated (10 μM/1 μM) SK-MEL-28 cells. […] For time course assay MTX (1 μM) and TMECG (10 μM) were used. […] Data were obtained in triplicate in two independent experiments. […] H, effects of MTX/TMECG (1 μM/10 μM) on cell number of indicated cell lines. Error bars show mean±SD. […] Error bars show mean±SD.
Melanoma cell lines of human and mouse origin were obtained from ATCC and maintained in the appropriate culture medium supplemented with 10% FBS and antibiotics. Cell viability was evaluated using the 3-(4,5-dimethylthiazol-2-yl)-2,5-diphenyltetrazolium bromide (MTT) cell proliferation assay.

E2F1 = assay: MALDI-TOF mass spectroscopy of immunoprecipitated E2F1 tryptic digests from SK-MEL-28 cells; conditions: SK-MEL-28, 24 h, normalized to internal matrix control
Protocol: SK-MEL-28 whole cell lysates were immunoprecipitated as described above but with two variations. First, the lysis and dilution buffers contained 2.5 μM trichostatin (a potent deacetylase inhibitor) and 20 μM trans-2-phenylcyclo-propylamine (an irreversible inhibitor of lysine-specific demethylase 1, LSD1). Second, the E2F1 antibody was covalently coupled to Dynabeads® (Invitrogen). After immunoprecipitation and elution, bound proteins were digested with trypsin according to standard procedures (Shevchenko). Data were recorded and processed with Agilent MassHunter Workstation Software for obtaining the Peptide Mass Fingerprint (PMF). The PMF result mass spectra were searched against the E2F1 protein sequence with carbamidomethylation of cysteine as fixed modification and methylation and acetylation of lysine residues, oxidation of methionine residues and phosphorylation of serine residues as variable modifications. Peptide mass tolerance was set to 50 ppm and a maximum of three missed cleavages was considered.

In the case of `CN(Cc1cnc2nc(N)nc(N)c2n1)c1ccc(C(=O)N[C@@H](CCC(=O)O)C(=O)O)cc1` [MTX, methotrexate], the induction of apoptosis (SK-MEL-28 cells [1]) is reported as “did not induce apoptosis”, the “mRNA expression of MITF differentiation target TYR and TYR protein expression” value (TYR) is reported as “increased” and the dTTP levels [2] is reported as “increased dTTP levels”. The proliferation (SK-MEL-28 cells [3]) was “reduced proliferation”, the “Intensity of phosphorylated (S364) E2F1 peptide” value (E2F1; CN 11) was 24 and the “Intensity of phosphorylated (S31) E2F1 peptide” value (E2F1; CN 46) was 12. For the same compound, the “Intensity of hyperacetylated (K117,120,125) E2F1 peptide” value (E2F1; CN 49) was 329, the “Intensity of non-methylated (K185) E2F1 peptide (K)NHIQWLGSHTTVGVGGR(L)” value (E2F1; CN 64) was 379 and the “Intensity of non-phosphorylated (S31) E2F1 peptide” value (E2F1; CN 295) was 312. For the same compound, the “Intensity of non-phosphorylated (S364) E2F1 peptide” value (E2F1; CN 318) was 310, the “Intensity of non-acetylated E2F1 peptide (K)SPGEK(S)” value (E2F1; CN 320) was 20 and the “Intensity of non-acetylated E2F1 peptide (R)HPGK(G)” value (E2F1; CN 325) was 16. The “Intensity of methylated (K185) E2F1 peptide” value (E2F1; CN 355) was 18.
